Measured values as given in patent publication EP1268431B1 (Wyeth, priority 2000, dated 2001).
“And” between values parts separate entries of the source, which are not always exact repeats. Identical values can stand only once. Like-named read-outs stand apart in the source and are kept apart here.

Experiments:
c-Src = molecular target: T1, c-Src (Homo sapiens, UniProt P12931); assay: c-Src Kinase Assay (ELISA format); format: biochemical
T1 construct: purchased Upstate Biotechnologies
Experimental: Inhibitors of Src (partially purified preparation purchased from Upstate Biotechnologies) tyrosine kinase activity are analyzed in an ELISA format. […] Horseradish Peroxidase (HRP)-conjugated anti-phosphotyrosine is used to detect phosphorylated peptide via a color reaction. Conditions recommended by the manufacturer are employed.
Reaction conditions: Five microliter aliquots of each compound prepared fresh at the time of the assay are added as a solution in 10mM HEPES pH 7.5, 10% DMSO to the reaction well. Thirty-five microliters of reaction mix containing Src, buffer and peptide/bovine serum albumin mix are added to the compound wells and incubated at 30°C for 10 minutes (reaction buffer: 50mM TrisHCl pH 7.5, 10mM MgCl2, 0.1mM EGTA, 0.5mM Na3VO4). The reaction is started by addition of 10 microliters of ATP, incubated at 30°C for 1 hour, and stopped by addition of 20 microliters of 0.5M EDTA. The reaction mixture with the phosphorylated peptide is then transferred to a streptavidin-coated microtiter plate (provided in the kit) and allowed to bind for 20 minutes. Unbound peptide and reaction mixture is decanted and the plate is washed with PBS six times. HRP-conjugated phosphotyrosine antibody supplied in the kit is incubated with the plate for one hour, then decanted. The plate is again washed with PBS six times.
Activity is determined as % inhibition as calculated by the formula: (1 - Abs/Abs(max)) x 100 = % inhibition.

[1] = system: Rat2 fibroblasts stably transformed with a plasmid containing a CMV promotor controlled v-Src/Hu c-Src fusion gene; assay: Anchorage Independent Src-transformed Fibroblast Proliferation Assay
[2] = Rattus norvegicus, Rat2, 120 h, read-out: anch-indep src-tx fib IC50, suspension growth, MTS on Day 5
[3] = read-out: anch-indep src-tx fib IC50, suspension growth, MTS on Day 5

T1 sequence (P12931 whole entry, species assumed): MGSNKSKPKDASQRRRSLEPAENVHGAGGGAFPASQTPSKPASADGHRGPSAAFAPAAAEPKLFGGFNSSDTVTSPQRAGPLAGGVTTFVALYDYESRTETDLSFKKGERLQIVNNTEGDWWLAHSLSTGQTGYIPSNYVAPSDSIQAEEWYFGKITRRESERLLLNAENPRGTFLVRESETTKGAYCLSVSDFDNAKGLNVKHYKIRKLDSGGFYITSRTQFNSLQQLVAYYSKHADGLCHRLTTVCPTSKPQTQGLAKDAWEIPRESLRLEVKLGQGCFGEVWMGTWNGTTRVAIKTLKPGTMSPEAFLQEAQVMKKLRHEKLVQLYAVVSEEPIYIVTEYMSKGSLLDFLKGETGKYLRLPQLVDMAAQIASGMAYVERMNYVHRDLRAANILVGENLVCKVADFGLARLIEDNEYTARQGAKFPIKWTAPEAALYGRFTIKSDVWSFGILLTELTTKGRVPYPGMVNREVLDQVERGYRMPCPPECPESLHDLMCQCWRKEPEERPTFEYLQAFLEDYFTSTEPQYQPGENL

Row | Compound | IC50 (c-Src) | inhibition at 0.01 µM (c-Src; at 10 nM) [%] | IC50 [1, 2] [nM] | IC50 [1, 3] [nM]
1 | COc1cc(Nc2c(C#N)cnc3cc(-c4ccccc4CN4CCOCC4)ccc23)c(Cl)cc1Cl [Example 115, 4-(2,4-Dichloro-5-methoxyanilino)-7-[2-(4-morpholinylmethyl)phenyl]-3-quinolinecarbonitrile] | 5000 nM | – | > 10000 | –
2 | COc1cc(Nc2c(C#N)cnc3cc(-c4sccc4C=O)ccc23)c(Cl)cc1Cl [Example 163, 4-(2,4-dichloro-5-methoxyanilino)-7-(3-formyl-2-thienyl)-3-quinolinecarbonitrile] | > 1000 nM | – | > 10000 | –
3 | COc1cc(Nc2c(C#N)cnc3cc(-n4cccc4CN(C)C)ccc23)c(Cl)cc1Cl [Example 93] | 610 nM and 680 nM | – | – | > 10000
4 | COc1cc(Nc2c(C#N)cnc3cc(-c4ccc(-c5ccccc5)cc4)ccc23)c(Cl)cc1Cl [Example 165, 7-[1,1'-biphenyl]-4-yl-4-(2,4-dichloro-5-methoxyanilino)-3-quinolinecarbonitrile] | – | 28 | > 10000 | –
5 | COc1cc(Nc2c(C#N)cnc3cc(-c4cccc(NC(C)=O)c4)ccc23)c(Cl)cc1Cl [Example 118, N-{3-[3-Cyano-4-(2,4-dichloro-5-methoxyanilino)-7-quinolinyl]phenyl}acetamide] | 160 nM | – | 3000 | –
6 | N#Cc1cnc2cc(-c3ccc(CN4CCOCC4)o3)ccc2c1Nc1ccc(Cl)cc1Cl [Example 13, 4-(2,4-Dichloroanilino)-7-[5-(4-morpholinylmethyl)-2-furyl]-3-quinolinecarbonitrile] | 10.4 nM and 4 nM | – | 1510 | 1590
7 | COc1cc(Nc2c(C#N)cnc3cc(-c4cc5ccccc5s4)ccc23)c(Cl)cc1Cl [Example 120] | 170 nM | – | – | > 10000
8 | COc1cc(Nc2c(C#N)cnc3cc(-c4ccsc4CN4CCOCC4)ccc23)c(Cl)cc1Cl [Example 66, 4-(2.4-Dichloro-5-methoxyanilino)-7-[2-(4-morpholinylmethyl)-3-thienyl]-3-quinolinecarbonitrile] | 380 nM | – | > 10000 | –
9 | COc1cc(Nc2c(C#N)cnc3cc(-c4ccc(CNCCS(C)(=O)=O)n4C)ccc23)c(Cl)cc1Cl [Example 73, 4-(2,4-Dichloro-5-methoxyanilino)-7-[1-methyl-5-({[2-(methylsulfonyl)ethyl]amino}methyl)-1H-pyrrol-2-yl]-3-quinolinecarbonitrile] | 58 nM and 75 nM | – | > 10000 | –
10 | COc1cc(Nc2c(C#N)cnc3cc(-c4ccc(CNCCS(=O)(=O)c5ccccc5)cc4)ccc23)c(Cl)cc1Cl [Example 85, 4-(2,4-Dichloro-5-methoxyanilino)-7-[4-({[2-(phenylsulfonyl)ethyl]amino}methyl)phenyl]-3-quinolinecarbonitrile] | 36 nM and 41 nM | – | 10200 | –
11 | CCN1CCN(Cc2cc(-c3ccc4c(Nc5cc(OC)c(Cl)cc5Cl)c(C#N)cnc4c3)cs2)CC1 [Example 19, 4-(2,4-Dichloro-5-methoxyanilino)-7-{5-[(4-ethyl-1-piperazinyl)methyl]-3-thienyl}-3-quinolinecarbonitrile] | 2 nM and 1.7 nM | – | 160 | –
12 | COc1cc(Nc2c(C#N)cnc3cc(C#CCCl)ccc23)c(Cl)cc1Cl [Example 152, 7-(3-chloro-1-propynyl)-4-[(2,4-dichloro-5-methoxyphenyl)amino]-3-quinolinecarbonitrile] | – | – | 4800 | 3800
13 | COc1cc(Nc2c(C#N)cnc3cc(C#CCN4CCOCC4)ccc23)c(Cl)cc1Cl [Example 146, 4-(2,4-dichloro-5-methoxyanilino)-7-[3-(4-morpholinyl)-1-propynyl]-3-quinolinecarbonitrile] | – | – | 6500 | –

Continued by falling IC50 (c-Src), values first:

Row | IC50 (c-Src) | inhibition at 0.01 µM (c-Src; at 10 nM) [%] | Compound | IC50 [1, 2] [nM] | IC50 [1, 3] [nM]
14 | 130 nM | – | COc1cc(Nc2c(C#N)cnc3cc(-c4cc5ccccc5o4)ccc23)c(Cl)cc1Cl [Example 119, 7-(1-Benzofuran-2-yl)-4-(2,4-dichloro-5-methoxyanilino)-3-quinolinecarbonitrile] | > 10000 | –
15 | 95 nM | – | COc1cc(Nc2c(C#N)cnc3cc(-c4cccc(N)c4)ccc23)c(Cl)cc1Cl [Example 174, 7-(3-aminophenyl)-4-(2,4-dichloro-5-methoxyanilino)-3-quinolinecarbonitrile] | 5600 | –
16 | 81 nM | – | COc1cc(Nc2c(C#N)cnc3cc(-c4cccc(CCN5CCOCC5)c4)c(OC)cc23)c(Cl)cc1Cl [Example 38, 4-(2,4-Dichloro-5-methoxyanilino)-6-methoxy-7-{3-[2-(4-morpholinyl)ethyl]phenyl}-3-quinolinecarbonitrile] | 12700 | 10600
17 | 44 nM | – | COc1cc(Nc2c(C#N)cnc3cc(/C=C/C(=O)O)ccc23)c(Cl)cc1Cl [Example 99, (E)-3-[3-Cyano-4-(2,4-dichloro-5-methoxyanilino)-7-quinolinyl]-2-propenoic acid] | > 10000 | –
18 | 44 nM | – | N#Cc1cnc2cc(C=CCCCCN3CCOCC3)ccc2c1Nc1ccc(Cl)cc1Cl (mixture of isomers) [Example 16, 4-(2,4-Dichloroanilino)-7-[(E/Z)-6-(4-morpholinyl)-1-hexenyl]-3-quinolinecarbonitrile] | > 10000 | –
19 | 40 nM | – | COc1cc(Nc2c(C#N)cnc3cc(-c4ccc(CNCCc5ccccn5)o4)ccc23)c(Cl)cc1Cl [Example 74] | – | 1400
20 | 21 nM | – | COc1cc(Nc2c(C#N)cnc3cc(-c4ccc(CNCCS(C)(=O)=O)o4)ccc23)c(Cl)cc1Cl [Example 77, 4-(2,4-Dichloro-5-methoxyanilino)-7-[5-({[2-(methylsulfonyl)ethyl]amino}methyl)-2-furyl]-3-quinolinecarbonitrile] | 420 | –
21 | 18 nM | – | COc1cc(Nc2c(C#N)cnc3cc(-c4ccc(CCl)cc4)ccc23)c(Cl)cc1Cl [Example 102, 7-[4-(Chloromethyl)phenyl]-4-(2,4-dichloro-5-methoxyanilino)-3-quinolinecarbonitrile] | 7500 | –
22 | 12 nM | – | COc1ccc(-c2ccc3c(Nc4cc(OC)c(Cl)cc4Cl)c(C#N)cnc3c2)cc1 [Example 194, 4-(2,4-dichloro-5-methoxyanilino)-7-(4-methoxyphenyl)-3-quinolinecarbonitrile] | > 10000 | –
23 | 4.3 nM | – | COc1cc(Nc2c(C#N)cnc3cc(-c4ccc(C5OCCO5)o4)ccc23)c(Cl)cc1Cl [Example 5, 4-(2,4-Dichloro-5-methoxyanilino)-7-[5-(1,3-dioxolan-2-yl)-2-furyl]-3-quinolinecarbonitrile] | 200 | –
24 | 4 nM | – | COc1cc(Nc2c(C#N)cnc3cc(-c4ccc(C=O)o4)ccc23)c(Cl)cc1Cl [Example 6, 4-(2,4-Dichloro-5-methoxyanilino)-7-(5-formyl-2-furyl)-3-quinolinecarbonitrile] | 1600 | –
25 | 3 nM | – | COc1ccc(Cl)c(Nc2c(C#N)cnc3cc(-c4ccc(CN5CCOCC5)cc4)ccc23)c1 [Example 236, 4-(2-chloro-5-methoxyanilino)-7-[4-(4-morpholinylmethyl)phenyl]-3-quinolinecarbonitrile] | 570 | –
26 | 2.7 nM | – | CCN1CCN(CCc2ccc(-c3ccc4c(Nc5cc(OC)c(Cl)cc5Cl)c(C#N)cnc4c3)cc2)CC1 [Example 32, 4-(2,4-Dichloro-5-methoxyanilino)-7-{4-[2-(4-ethyl-1-piperazinyl)ethyl]phenyl}-3-quinolinecarbonitrile] | 2000 | 1900
27 | 2.4 nM | – | CCN1CCN(Cc2cc(-c3ccc4c(Nc5ccc(Cl)cc5Cl)c(C#N)cnc4c3)cs2)CC1 [Example 10, 4-(2,4-Dichloroanilino)-7-{5-[(4-ethyl-1-piperazinyl)methyl]-3-thienyl}-3-quinolinecarbonitrile] | 900 | –
28 | 2 nM | – | COc1ccc(Cl)c(Nc2c(C#N)cnc3cc(-c4csc(CN5CCOCC5)c4)ccc23)c1 [Example 131, 4-(2-chloro-5-methoxyanilino)-7-[5-(4-morpholinylmethyl)-3-thienyl]-3-quinolinecarbonitrile] | 90 | –
29 | 1.7 nM | – | COc1cc(Nc2c(C#N)cnc3cc(-c4csc(CN5CCOCC5)c4)ccc23)c(Cl)cc1F [Example 79, 4-(2-chloro-4-fluoro-5-methoxyanilino)-7-[5-(4-morpholinylmethyl)-3-thienyl]-3-quinolinecarbonitrile] | 130 | –
30 | 1.1 nM | – | COc1cc(Nc2c(C#N)cnc3cc(-c4ccc(CN5CCC[C@@H]5C(N)=O)o4)ccc23)c(Cl)cc1Cl [Example 47, (2R)-1-({5-[3-Cyano-4-(2,4-dichloro-5-methoxyanilino)-7-quinolinyl]-2-furyl}methyl)-2-pyrrolidinecarboxamide] | 1170 | –
31 | 0.67 nM | – | COc1cc(Nc2c(C#N)cnc3cc(-c4ccc(CN5CCCC(C(=O)O)C5)cc4)ccc23)c(Cl)cc1Cl (stereo not shown) [Example 149, 1-(4-{3-cyano-4-[(2,4-dichloro-5-methoxyphenyl)amino]-7-quinolinyl}benzyl)-3-piperidinecarboxylic acid] | 2500 | –
